Literature values in paper PMC10321319 (Nature, 2022).
≈ marks a conversion by molar mass, not a printed value.

Legend:
A. baumannii 0286 = conditions: XDR A. baumannii 0286, mcr-1 −; ref CDC & FDA Antibiotic Resistant Isolate Bank; cited from earlier work
A. baumannii 0287 = conditions: XDR A. baumannii 0287, mcr-1 −; ref CDC & FDA Antibiotic Resistant Isolate Bank; cited from earlier work
A. baumannii 0295 = conditions: XDR A. baumannii 0295, mcr-1 −; ref CDC & FDA Antibiotic Resistant Isolate Bank; cited from earlier work
A. baumannii 0296 = conditions: XDR A. baumannii 0296, mcr-1 −; ref CDC & FDA Antibiotic Resistant Isolate Bank; cited from earlier work
A. baumannii 0301 = conditions: XDR A. baumannii 0301, mcr-1 −; ref CDC & FDA Antibiotic Resistant Isolate Bank; cited from earlier work
A. baumannii 0282 = conditions: XDR A. baumannii 0282, mcr-1 −; ref CDC & FDA Antibiotic Resistant Isolate Bank; cited from earlier work

In the case of NCC[C@H](O)C(=O)N[C@@H]1C[C@H](N)[C@@H](O[C@H]2O[C@H](CN)[C@@H](O)[C@H](O)[C@H]2O)[C@H](O)[C@H]1O[C@H]1O[C@H](CO)[C@@H](O)[C@H](N)[C@H]1O [Amikacin], the MIC (A. baumannii 0286) is given as >64 µg/mL, the MIC (A. baumannii 0287) is given as 32 µg/mL (≈ 54.6 µM) and the MIC (A. baumannii 0295) is given as 4 µg/mL (≈ 6.83 µM). For the same molecule, the MIC (A. baumannii 0296) was >64 µg/mL, the MIC (A. baumannii 0301) was 64 µg/mL (≈ 109 µM) and the MIC (A. baumannii 0282) was >64 µg/mL.
For CC1(C)S[C@@H]2[C@H](NC(=O)[C@H](N)c3ccccc3)C(=O)N2[C@H]1C(=O)O [Ampicillin], the MIC (A. baumannii 0286) is listed as 32 µg/mL (≈ 91.6 µM), the MIC (A. baumannii 0287) is listed as >32 µg/mL and the MIC (A. baumannii 0295) is listed as >32 µg/mL. For the same molecule, the MIC (A. baumannii 0296) was >32 µg/mL, the MIC (A. baumannii 0301) was >32 µg/mL and the MIC (A. baumannii 0282) was >32 µg/mL.
In the case of CO/N=C(\C(=O)N[C@@H]1C(=O)N2C(C(=O)[O-])=C(C[N+]3(C)CCCC3)CS[C@H]12)c1csc(N)n1 [Cefepime], the MIC (A. baumannii 0286) is given as 32 µg/mL (≈ 66.6 µM), the MIC (A. baumannii 0287) is given as 32 µg/mL (≈ 66.6 µM) and the MIC (A. baumannii 0295) is given as >32 µg/mL. The MIC (A. baumannii 0296) was >32 µg/mL, the MIC (A. baumannii 0301) was >32 µg/mL and the MIC (A. baumannii 0282) was >32 µg/mL.
In the case of CO/N=C(\C(=O)N[C@@H]1C(=O)N2C(C(=O)O)=C(COC(C)=O)CS[C@H]12)c1csc(N)n1 [Cefotaxime], the MIC (A. baumannii 0286) is given as >64 µg/mL, the MIC (A. baumannii 0287) is given as >64 µg/mL and the MIC (A. baumannii 0295) is given as >64 µg/mL. The MIC (A. baumannii 0296) was >64 µg/mL, the MIC (A. baumannii 0301) was >64 µg/mL and the MIC (A. baumannii 0282) was >64 µg/mL.
In the case of CC(C)(O/N=C(\C(=O)N[C@@H]1C(=O)N2C(C(=O)[O-])=C(C[n+]3ccccc3)CS[C@H]12)c1csc(N)n1)C(=O)O [Ceftazidime], the MIC (A. baumannii 0286) is given as 128 µg/mL (≈ 234 µM), the MIC (A. baumannii 0287) is given as 128 µg/mL (≈ 234 µM) and the MIC (A. baumannii 0295) is given as >128 µg/mL. For the same molecule, the MIC (A. baumannii 0296) was >128 µg/mL, the MIC (A. baumannii 0301) was 128 µg/mL (≈ 234 µM) and the MIC (A. baumannii 0282) was >128 µg/mL.
For CO/N=C(\C(=O)N[C@@H]1C(=O)N2C(C(=O)O)=C(CSc3nc(=O)c(=O)[nH]n3C)CS[C@H]12)c1csc(N)n1 [Ceftriaxone], the MIC (A. baumannii 0286) is given as >32 µg/mL, the MIC (A. baumannii 0287) is given as >32 µg/mL and the MIC (A. baumannii 0295) is given as >32 µg/mL. For the same molecule, the MIC (A. baumannii 0296) was >32 µg/mL, the MIC (A. baumannii 0301) was >32 µg/mL and the MIC (A. baumannii 0282) was >32 µg/mL.
For O=C(O)c1cn(C2CC2)c2cc(N3CCNCC3)c(F)cc2c1=O [Ciprofloxacin], the MIC (A. baumannii 0286) is listed as >8 µg/mL, the MIC (A. baumannii 0287) is listed as >8 µg/mL and the MIC (A. baumannii 0295) is listed as >8 µg/mL. The MIC (A. baumannii 0296) was >8 µg/mL, the MIC (A. baumannii 0301) was >8 µg/mL and the MIC (A. baumannii 0282) was >8 µg/mL.
For C[C@@H](O)[C@H]1C(=O)N2C(C(=O)O)=C(S[C@@H]3CN[C@H](CNS(N)(=O)=O)C3)[C@H](C)[C@H]12 [Doripenem], the MIC (A. baumannii 0286) is listed as >8 µg/mL, the MIC (A. baumannii 0287) is listed as >8 µg/mL and the MIC (A. baumannii 0295) is listed as >8 µg/mL. The MIC (A. baumannii 0296) was >8 µg/mL, the MIC (A. baumannii 0301) was >8 µg/mL and the MIC (A. baumannii 0282) was >8 µg/mL.
In the case of CNC(C)C1CCC(N)C(OC2C(N)CC(N)C(OC3OCC(C)(O)C(NC)C3O)C2O)O1 (stereo not shown) [Gentamicin], the MIC (A. baumannii 0286) is given as >16 µg/mL, the MIC (A. baumannii 0287) is given as 4 µg/mL (≈ 8.38 µM) and the MIC (A. baumannii 0295) is given as 4 µg/mL (≈ 8.38 µM). The MIC (A. baumannii 0296) was >16 µg/mL, the MIC (A. baumannii 0301) was 8 µg/mL (≈ 16.8 µM) and the MIC (A. baumannii 0282) was >16 µg/mL.
In the case of C[C@@H](O)[C@H]1C(=O)N2C(C(=O)O)=C(SCCN=CN)C[C@H]12 [Imipenem], the MIC (A. baumannii 0286) is listed as >64 µg/mL, the MIC (A. baumannii 0287) is listed as 64 µg/mL (≈ 214 µM) and the MIC (A. baumannii 0295) is listed as >64 µg/mL. For the same molecule, the MIC (A. baumannii 0296) was 64 µg/mL (≈ 214 µM), the MIC (A. baumannii 0301) was >64 µg/mL and the MIC (A. baumannii 0282) was 64 µg/mL (≈ 214 µM).
For C[C@H]1COc2c(N3CCN(C)CC3)c(F)cc3c(=O)c(C(=O)O)cn1c23 [Levofloxacin], the MIC (A. baumannii 0286) is listed as 8 µg/mL (≈ 22.1 µM), the MIC (A. baumannii 0287) is listed as 8 µg/mL (≈ 22.1 µM) and the MIC (A. baumannii 0295) is listed as >8 µg/mL. The MIC (A. baumannii 0296) was >8 µg/mL, the MIC (A. baumannii 0301) was >8 µg/mL and the MIC (A. baumannii 0282) was 8 µg/mL (≈ 22.1 µM).
In the case of CN(C)c1cc(NC(=O)CNC(C)(C)C)c(O)c2c1C[C@H]1C[C@H]3[C@H](N(C)C)C(O)=C(C(N)=O)C(=O)[C@@]3(O)C(O)=C1C2=O [Tigecycline], the MIC (A. baumannii 0295) is given as 4 µg/mL (≈ 6.83 µM) and the MIC (A. baumannii 0301) is given as 4 µg/mL (≈ 6.83 µM).
For NC[C@H]1O[C@H](O[C@H]2[C@H](O)[C@@H](O[C@H]3O[C@H](CO)[C@@H](O)[C@H](N)[C@H]3O)[C@H](N)C[C@@H]2N)[C@H](N)C[C@@H]1O [Tobramycin], the MIC (A. baumannii 0286) is listed as >16 µg/mL, the MIC (A. baumannii 0287) is listed as >16 µg/mL and the MIC (A. baumannii 0296) is listed as >16 µg/mL. For the same molecule, the MIC (A. baumannii 0301) was >16 µg/mL and the MIC (A. baumannii 0282) was >16 µg/mL.
